One test deals with allergic sheep. To be noted: cited from earlier work.
The subject of test [1] is human bronchial epithelial cell (HBE). As to the kind of experiment: Short circuit current (Isc) in cultured human bronchial epithelial (HBE) cells, Ussing chamber. To be noted: for sodium current: 0.5 to 5 ug/mL (0.5, 1.5 and 5 ug/mL), 90 minute period. The test is classed as cell-based.
Experimental: Tertiary HBE cell monolayer grown to confluence were mounted in modified Ussing chambers, immersed in Krebs buffer (KBR) solution and bubbled with 95% O2/5% CO2 warmed to 37 C.
Cells were left to equilibrate for 20 minutes before calibrating for background noise and fluid resistance. Transepithelial potential difference was then clamped to 0 mV using a WPI EVC 4000 voltage clamp. Ag/AgCl electrodes were used to monitor Isc. […] Once a response to amiloride was seen, it was washed out with KBR solution. […] 90 minutes following agent treatment, amiloride (10 uM) was added. Once the current was stable forskolin (10 uM) and then bumetanide (100 uM) was added.
Tertiary HBE cell monolayers grown to confluence were mounted in modified Ussing chambers, immersed in Krebs buffer (KBR) solution and bubbled with 95% O2/5% CO2 warmed to 37 C.
Cells were left to equilibrate for 20 minutes before calibrating for background noise and fluid resistance. Transepithelial potential difference was then clamped to 0 mV using a WPI EVC 4000 voltage clamp. Ag/AgCI electrodes were used to monitor Isc. […] Once a response to amiloride was seen, it was washed out with KBR solution. […] 90 minutes following agent treatment, amiloride (10 uM) was added.
Test [2] deals with human CF bronchial epithelial cells. Kind of test: Short circuit current (Isc) in cultured human cystic fibrosis bronchial epithelial cells. The test is classed as cell-based.
Experimental: HBE cells were isolated from CF patient lung transplant tissue and grown in collagen coated flasks for one week. The cells were then passaged and seeded onto collagen coated Costar Transwell filters (0.33 cm2) and grown in DMEM/F12 media supplemented with 2% Ultroser G. Cells were grown at an air liquid interface and used 2 to 4 weeks after seeding:
Cells on the Transwell filters were mounted in modified Costar Ussing chambers and studied under Isc conditions. […] Isc was recorded for 100 minutes and then the apical bath fluid was exchanged with fresh buffer. Trypsin (100 BAEE units/mL) was added to the apical side and Isc recorded for 10 minutes. Amiloride (10 uM) was then added to the apical side and Isc was recorded for a further 10 minutes.
HBE cells were isolated from CF patient lung transplant tissue and grown in collagen coated flasks for one week. The cells were then passaged and seeded onto collagen coated Costar Transwell filters (0.33 cm^2) and grown in DMEM/F12 media supplemented with 2% Ultroser G. Cells were grown at an air liquid interface and used 2 to 4 weeks after seeding.
Cells on the Transwell filters were mounted in modified Costar Ussing chambers and studied under Isc conditions. […] Isc was recorded for 90 minutes and then amiloride (10 uM) was added and Isc was recorded for a further 10 minutes. The apical bath fluid was then exchanged with fresh buffer, and Isc was recorded for a further 15 minutes. Trypsin (1 uM) was added to the apical side and Isc recorded for 15 minutes. Amiloride (10 uM) was then added to the apical side and Isc was recorded for a further 10 minutes.
In test [3] the test system is guinea pig trachea. Kind of test: Tracheal mucus velocity (TMV) in the guinea-pig. The test is classed as in vivo. As for the experimental part:
The aim of this study was to investigate the effect of the Kunitz family serine protease inhibitor Bikunin on guinea-pig tracheal mucus velocity 1.5 hours post treatment. This agent was delivered into the cephalad trachea by topical instillation. TMV was monitored 1.5 hours later for 60 mins. The procedure used in this Example is described in Newton et al. in “Cila, Mucus and Mucociliary Interactions,” Ed., Baum, G. L. et al., Marcel Dekker, New York, 1998; Newton et al., Ped. Pulm. S17, Abs. 364, 1998). […]
TMV was monitored using a lead collimated miniature Beta particle detector probe arranged to detect the radioactivity emitted from an injected aliquot of ^32P-labelled Saccharomyces cerevisiae as it was transported on the tracheal mucociliary layer of an anaesthetized guinea pig (Newton and Hall 1998) FIG. 16(a) illustrates the arrangement of the syringe and beta probe. FIG. 16(b) illustrates the counts detected by the probe as the ^32P-labelled S. cerevisiae is transported along the tracheal mucociliary layer. […]
The aim of this comparative study was to investigate the effect of hypertonic saline (14.4%×5 min) on guinea-pig tracheal mucus velocity. […] TMV was monitored immediately and every 15 minutes for 30 minutes. […]

For test [4], the system named is guinea pig trachea. To be noted: 10 mM, 20 minute aerosol; 15 minutes after; n=8 (Newton et al 1998); cited from earlier work.
For another test, the system named is diseased patients. To be noted: inhalation; diseased patients (Robinson et al 1997; App et al 1990); cited from earlier work.
The next test concerns A6 cells. To be noted: exposure of the apical membrane (Vallet et al 1997; Chraibi et al 1998), cited from earlier work.
Test [5] has as its target T1, human neutrophil elastase (Homo sapiens, UniProt P08246).
T1 sequence (P08246 30-267): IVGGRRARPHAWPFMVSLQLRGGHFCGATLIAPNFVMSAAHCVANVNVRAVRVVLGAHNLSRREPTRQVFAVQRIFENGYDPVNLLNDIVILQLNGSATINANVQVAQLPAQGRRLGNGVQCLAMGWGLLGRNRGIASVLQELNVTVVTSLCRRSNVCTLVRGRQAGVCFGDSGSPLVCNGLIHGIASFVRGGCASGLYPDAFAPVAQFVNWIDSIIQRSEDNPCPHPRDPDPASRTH
As to the kind of experiment: Inhibition of human neutrophil elastase, Ki (Dixon plots). Type of test: biochemical. To be noted: Table 3; Human Neutrophil Elastase (19 nM). The method, then: […] Ki values were determined from Dixon plots of the form 1/V versus performed at two different substrate concentrations (Dixon et al., 1979).

In another test the target is T2, human tissue kallikrein (Homo sapiens, UniProt P06870).
T2 construct: purchased Bayer, Germany
Kind of test: Inhibition of human tissue kallikrein, Ki. The test is classed as biochemical. To be noted: Table 3; Human Tissue Kallikrein (0.35 nM); PFR-AMC (10 μM).

For another test, the target named is T3, human factor Xa (Homo sapiens, UniProt P00742).
T3 construct: purchased American Diagnostica, Inc, Greenwich, Conn
Kind of test: Inhibition of human factor Xa. Type of test: biochemical. To be noted: Table 3; factor Xa (0.87 nM); LGR-AMC (0.6 mM).

For another test, the target named is T4, human plasmin (Homo sapiens, UniProt P00747).
T4 construct: purchased Sigma (St. Louis, Mo.)
As to the kind of experiment: Inhibition of human plasmin, Ki. Type of test: biochemical. To be noted: Table 3; Human Plasmin (50 pM); GPK-AMC (0.5 mM).

Another test concerns the target T5, human plasma kallikrein (Homo sapiens, UniProt P03952).
T5 construct: purchased Sigma (St. Louis, Mo.)
Kind of test: Inhibition of human plasma kallikrein, Ki. Type of test: biochemical.

The next test has as its target T6, human urokinase (Homo sapiens, UniProt P00749).
T6 construct: purchased Sigma
As to the kind of experiment: Inhibition of human urokinase, Ki. The test is classed as biochemical. To be noted: Table 3, GGR-AMC (0.7 mM).

The target of the next test is Bovine chymotrypsin (Bos taurus, UniProt P00766). As to the kind of experiment: Inhibition of chymotrypsin, Ki. Type of test: biochemical.

Read-outs that look alike come from different tables or passages of the source.

T5 sequence (P03952 391-638 limits assumed): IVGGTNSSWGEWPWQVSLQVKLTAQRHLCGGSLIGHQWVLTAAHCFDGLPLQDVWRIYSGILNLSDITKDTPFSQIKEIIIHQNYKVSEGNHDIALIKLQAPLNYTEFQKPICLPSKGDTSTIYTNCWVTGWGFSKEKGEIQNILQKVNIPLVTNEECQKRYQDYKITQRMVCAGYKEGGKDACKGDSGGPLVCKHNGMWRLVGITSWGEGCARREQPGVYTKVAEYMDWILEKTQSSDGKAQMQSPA
T5 sequence (P03952 20-390 partner limits assumed): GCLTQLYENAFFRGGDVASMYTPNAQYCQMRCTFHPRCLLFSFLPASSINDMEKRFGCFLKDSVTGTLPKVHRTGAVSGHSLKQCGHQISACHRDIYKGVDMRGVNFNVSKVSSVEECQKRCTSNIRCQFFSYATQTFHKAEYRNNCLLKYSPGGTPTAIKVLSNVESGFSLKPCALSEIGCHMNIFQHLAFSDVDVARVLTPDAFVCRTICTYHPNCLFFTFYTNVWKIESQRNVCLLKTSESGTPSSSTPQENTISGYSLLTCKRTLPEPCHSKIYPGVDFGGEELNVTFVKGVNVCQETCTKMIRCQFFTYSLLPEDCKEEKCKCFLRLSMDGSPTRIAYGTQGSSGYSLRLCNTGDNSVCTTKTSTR
T2 sequence (P06870 25-262): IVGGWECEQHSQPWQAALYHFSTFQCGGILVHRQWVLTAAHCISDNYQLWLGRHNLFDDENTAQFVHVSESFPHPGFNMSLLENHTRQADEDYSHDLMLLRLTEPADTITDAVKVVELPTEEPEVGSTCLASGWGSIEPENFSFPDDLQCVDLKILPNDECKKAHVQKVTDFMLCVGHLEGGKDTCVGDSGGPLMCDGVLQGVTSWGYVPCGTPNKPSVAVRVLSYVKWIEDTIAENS
T3 sequence (P00742 235-488 limits assumed): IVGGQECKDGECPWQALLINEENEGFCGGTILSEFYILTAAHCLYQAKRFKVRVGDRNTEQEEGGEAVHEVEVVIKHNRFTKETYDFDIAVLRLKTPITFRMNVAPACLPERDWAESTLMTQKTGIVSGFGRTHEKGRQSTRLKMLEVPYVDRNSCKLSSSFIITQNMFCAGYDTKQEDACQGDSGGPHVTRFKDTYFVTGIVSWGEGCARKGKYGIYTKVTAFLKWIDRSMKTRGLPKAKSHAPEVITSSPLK
T3 sequence (P00742 41-179 partner limits assumed): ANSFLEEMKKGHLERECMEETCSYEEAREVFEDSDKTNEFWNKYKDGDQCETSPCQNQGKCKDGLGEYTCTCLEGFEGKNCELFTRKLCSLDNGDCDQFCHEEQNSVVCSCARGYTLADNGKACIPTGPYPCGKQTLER
T4 sequence (P00747 581-810 limits assumed): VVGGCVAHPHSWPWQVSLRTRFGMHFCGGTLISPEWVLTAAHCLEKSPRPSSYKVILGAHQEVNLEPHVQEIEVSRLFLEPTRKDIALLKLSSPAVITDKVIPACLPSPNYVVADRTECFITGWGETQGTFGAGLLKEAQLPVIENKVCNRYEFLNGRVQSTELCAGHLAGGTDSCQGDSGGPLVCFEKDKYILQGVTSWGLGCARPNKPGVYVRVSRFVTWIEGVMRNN
T4 sequence (P00747 97-580 partner limits assumed): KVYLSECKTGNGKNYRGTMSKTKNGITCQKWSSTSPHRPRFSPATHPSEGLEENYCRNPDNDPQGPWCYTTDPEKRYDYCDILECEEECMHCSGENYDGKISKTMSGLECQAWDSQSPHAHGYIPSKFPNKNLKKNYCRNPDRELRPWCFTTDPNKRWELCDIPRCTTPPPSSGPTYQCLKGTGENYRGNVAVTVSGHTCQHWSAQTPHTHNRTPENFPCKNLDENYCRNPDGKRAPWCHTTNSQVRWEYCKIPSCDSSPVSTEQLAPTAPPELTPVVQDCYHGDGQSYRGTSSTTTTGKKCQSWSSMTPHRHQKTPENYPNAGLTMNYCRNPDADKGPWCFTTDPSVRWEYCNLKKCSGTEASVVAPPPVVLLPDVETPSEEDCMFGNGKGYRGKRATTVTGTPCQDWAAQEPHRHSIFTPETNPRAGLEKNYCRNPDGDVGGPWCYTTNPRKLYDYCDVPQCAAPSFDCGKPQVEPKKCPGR
Experimental for human factor Xa: (§1) After 5 min. at 37° C., 30 ul of 20 mM LGR-AMC (Sigma) was added and the change in fluorescence monitored. […] After 5 min. at 37° C., 35 ul of 20 mM GGR-AMC (Sigma) was added and the change in fluorescence monitored.
Experimental for human plasma kallikrein: (§2) After 5 min. at 37° C., 15 μl of 2 mM GPK-AMC was added and the change in fluorescence (as above) was monitored. […] After 5 min. incubation at 37° C., 25 μl of 20 mM GPK-AMC was added and the change in fluorescence monitored. […] After 5 min. at 37° C. 15 μl of 20 mM PFR-AMC was added and the change in fluorescence monitored.
(§3) After 30 min. incubation at 37° C., 25 μl of 20 mM GPK-AMC was added and the change in fluorescence monitored. […] After 30 min. at 37° C., 5 μl of 20 mM PFR-AMC was added and the change in fluorescence monitored.
Experimental for human plasmin: as §2, §3
Experimental for human tissue kallikrein: After 5 min. at 37° C., 5 ul of 2 mM PFR-AMC was added achieving 10 uM final and the change in fluorescence monitored. The Km for PFR-AMC with human tissue kallikrein under the conditions employed was 5.7 uM.
After 5 min. at 37° C., 5 μl of 2 mM PFR-AMC was added and the change in fluorescence monitored.
After 5 min. at 37° C., 5 ul of 2 mM PFR-AMC was added achieving 10 uM final concentration and the change in fluorescence monitored.
Experimental for human urokinase: as §1

As for “α1-PI: serpin-family serine protease inhibitor alpha(1)-protease inhibitor”, in the test with allergic sheep (10 mg given 30 min before or 1 h after antigen challenge, 6 h after challenge), the “antigen-induced reduction in TMV” value was “attenuated antigen-induced reduction in TMV”. Also, in the test on allergic sheep (administered on its own (no antigen challenge), over a 6 h period), the “baseline TMV” value is on record as “no effect on baseline TMV”. For the same compound, the “antigen-induced fall in TMV” value with allergic sheep (given 6 h after antigen challenge, at 24 h after challenge) is recorded as “significant reversal of the antigen-induced fall in TMV”. For the same compound, the “effect on Na+ Isc” value in test [1] (50 ug.ml−1, normal HBE cells, further study) is given as “without a significant effect”.
Take `N=C(N)NC(=O)c1nc(Cl)c(N)nc1N` [amiloride, reference compound]: in test [2] (10 uM, apical, after trypsin), the Isc entry was “inhibited the majority of the current”. Besides, the TMV result in the test with guinea pig trachea [3] (10 mM x 20 mins aerosol, 15 minutes after aerosol, FIG. 19) was “statistically significant increase in TMV”; with guinea pig trachea [4], 8.1±0.3 mm.min^−1. Further, in the test with diseased patients, the MCC result is “significantly increase MCC”.
“Des Pro2-Ser10-Arg15-Asp24-Thr26-Glu31-Asn41-Glu53-Aprotinin [Aprotinin double mutein]”: the TMV result in the test with guinea pig trachea [3] (10 ug, relative to HBSS, 1.5 to 2.5 hours following administration, FIG. 26) is “increased TMV”. Further, the sodium current result in test [1] (FIG. 20) is given as “dose dependently inhibited sodium current”; in test [1] (FIG. 20, listed as aprotinin double mutein), “decrease sodium short circuit current”.
On to Aprotinin, for which the Isc result in test [2] (20 ug/mL, 90 minutes after apical application) is listed as “decreases sodium current”; in [2] (20 ug/mL, 90 minutes after apical application, listed as aprotinin) it was “inhibited Isc”; in [2] (1 mg/mL in PBS, over a 100 minute period, FIG. 21), “inhibited Isc”. The “transepithelial Na+ transport” value with A6 cells is “reduce transepithelial Na^+ transport”; in the test with A6 cells (listed as aprotinin) it was “reduced transepithelial Na^+ transport”. Also, the “sodium short circuit current” value in test [1] (5 ug/mL, FIG. 20) is “decrease sodium short circuit current”.
As a reminder, the Ki is the dissociation constant of the complex between target and ligand, obtained from inhibition or displacement. Take `CC[C@H](C)[C@@H]1NC(=O)[C@H](Cc2ccccc2)NC(=O)[C@H](CC(N)=O)NC(=O)[C@H](CC(N)=O)NC(=O)[C@@H]2CSSC[C@@H]3NC(=O)[C@H](C)NC(=O)[C@H](CCC(=O)O)NC(=O)[C@H](CCC(=O)O)NC(=O)[C@H](CO)NC(=O)[C@H](CCCNC(=N)N)NC(=O)[C@H](Cc4ccc(O)cc4)NC(=O)[C@H](CO)NC(=O)[C@H](CC(N)=O)NC(=O)[C@H](CCCCN)NC(=O)[C@H](CC(N)=O)NC(=O)CNC(=O)[C@H](CCCNC(=N)N)NC(=O)[C@H](CSSC[C@H](NC(=O)[C@@H]4CCCN4C(=O)CNC(=O)[C@H]([C@@H](C)O)NC(=O)[C@H](C(C)C)NC(=O)[C@H](C)NC(=O)[C@H](CC(N)=O)NC(=O)[C@H](C)NC(=O)[C@H]([C@@H](C)O)NC(=O)[C@@H](NC(=O)[C@H](Cc4ccc(O)cc4)NC(=O)[C@H](CCC(=O)O)NC(=O)[C@H](CCC(=O)O)NC(=O)[C@@H](N)Cc4ccc(O)cc4)CSSC[C@@H](C(=O)N[C@@H](Cc4ccccc4)C(=O)N[C@@H](CCCNC(=N)N)C(=O)N[C@@H](CCC(N)=O)C(=O)O)NC(=O)[C@H](CCCNC(=N)N)NC(=O)[C@H](CC(C)C)NC(=O)[C@H](CCSC)NC3=O)C(=O)N[C@@H](CCCNC(=N)N)C(=O)N[C@@H](C)C(=O)N[C@@H](CO)C(=O)N[C@@H](Cc3ccccc3)C(=O)N3CCC[C@H]3C(=O)N[C@@H](CCCNC(=N)N)C(=O)N[C@@H](Cc3c[nH]c4ccccc34)C(=O)N[C@@H](Cc3ccc(O)cc3)C(=O)N[C@@H](Cc3ccccc3)C(=O)N[C@@H](CC(=O)O)C(=O)N[C@@H](C(C)C)C(=O)N[C@@H](CCC(=O)O)C(=O)N[C@@H](CCCNC(=N)N)C(=O)N[C@@H](CC(N)=O)C(=O)N[C@@H](CO)C(=O)N2)NC(=O)CNC(=O)CNC(=O)[C@H](Cc2ccc(O)cc2)NC1=O` [Bikunin (102-159)]: the inhibition constant Ki is 323 nM in [5]; 0.13 nM at human tissue kallikrein; 274 nM on human factor Xa; 1.8 nM at human plasmin; 0.3 nM at human plasma kallikrein (Table 3, Human Plasma Kallikrein (2.5 nM), PFR-AMC (0.3 mM)); 0.3 nM at human plasma kallikrein (Table 4A, Human Plasma Kallikrein (2.5 nM)). Further, the Ki is 0.7 nM at human plasma kallikrein (Table 4B, Human Plasma Kallikrein ([…] nM)); 11000 nM on human urokinase; 0.24 nM at Bovine chymotrypsin (Table 3, Chymotrypsin (5 nM), AAPF-pNA (0.08 mM)); 0.2 nM at Bovine chymotrypsin (Table 4A, Bovine chymotrypsin (5 nM)).

Source of the values: patent US20070086956A1, “Method for accelerating the rate of mucociliary clearance” (BAYER AKTIENGESELLSCHAFT, priority 1998, published 2007).
